Measured values published in patent publication US20240158446A1, “CYCLIC COMPOUND HAVING SELECTIVE INHIBITORY ACTION ON KRAS OVER HRAS AND NRAS” (CHUGAI SEIYAKU KABUSHIKI KAISHA, priority 2021, published 2024).

How the values were obtained:
[1] = biological target: GDP-bound KRAS wild-type protein (Homo sapiens, UniProt P01116); experiment: Binding to KRAS by surface plasmon resonance (SPR), Single Cycle Kinetics; settings: SPR Single Cycle Kinetics, GDP-bound KRAS wild-type protein, 1:1 binding model; read-out: KRAS KD
[2] = biological target: GDP-bound NRAS wild-type protein (Homo sapiens, UniProt P01111); experiment: Binding to NRAS by surface plasmon resonance (SPR), Single Cycle Kinetics; settings: SPR, GDP-bound NRAS wild-type protein vs GDP-bound KRAS wild-type protein
[3] = biological target: GDP-bound HRAS wild-type protein (Homo sapiens, UniProt P01112); experiment: Binding to HRAS by surface plasmon resonance (SPR), Single Cycle Kinetics; settings: SPR, GDP-bound HRAS wild-type protein vs GDP-bound KRAS wild-type protein
GDP-bound HRAS wild-type protein, sequence (P01112 whole entry): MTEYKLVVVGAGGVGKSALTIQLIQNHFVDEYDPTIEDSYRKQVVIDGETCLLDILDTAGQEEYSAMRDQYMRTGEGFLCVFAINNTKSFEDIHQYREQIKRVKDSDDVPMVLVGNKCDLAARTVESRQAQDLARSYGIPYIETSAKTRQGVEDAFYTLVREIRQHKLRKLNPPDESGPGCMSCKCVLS

GDP-bound NRAS wild-type protein, sequence (P01111 whole entry): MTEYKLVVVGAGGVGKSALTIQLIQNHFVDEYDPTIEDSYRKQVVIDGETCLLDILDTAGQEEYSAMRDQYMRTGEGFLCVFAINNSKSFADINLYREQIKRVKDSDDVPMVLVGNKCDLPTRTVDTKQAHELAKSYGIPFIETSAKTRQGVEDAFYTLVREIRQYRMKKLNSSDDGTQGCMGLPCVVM
GDP-bound KRAS wild-type protein, sequence (P01116 whole entry): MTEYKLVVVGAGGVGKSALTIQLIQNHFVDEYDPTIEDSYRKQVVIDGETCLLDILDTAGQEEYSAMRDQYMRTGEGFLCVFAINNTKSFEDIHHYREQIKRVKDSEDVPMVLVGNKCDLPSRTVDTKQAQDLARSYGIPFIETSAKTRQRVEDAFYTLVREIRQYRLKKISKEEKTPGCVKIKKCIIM

Compound | Kd [1] | NRAS/KRAS (ratio of KD value with respect to NRAS to KD value with respect to KRAS) [2] | HRAS/KRAS (ratio of KD value with respect to HRAS to KD value with respect to KRAS) [3]
CC[C@H](C)[C@@H]1NC(=O)[C@H](CC(C)C)N(C)C(=O)C[C@@H](C(=O)N2CCOCC2)N(C)C(=O)[C@H](C2CCCC2)N(C)C(=O)C2(CCCC2)NC(=O)[C@@H]2CCCN2C(=O)[C@H](CCc2ccc(C(F)(F)F)c(Cl)c2)NC(=O)CN(C)C(=O)[C@H](Cc2ccc(C(F)(F)F)cc2)N2CC=CC[C@@H](C2=O)N(C)C(=O)CN(C)C1=O [PP0462] | 320 pM | C (A compound having a KD ratio of 0.1 or more and less than 3 is denoted as C) | C (A compound having a KD ratio of 0.1 or more and less than 3 is denoted as C)
CC[C@H](C)[C@@H]1NC(=O)[C@H](CC(C)C)N(C)C(=O)C[C@@H](C(=O)N2CCOCC2)N(C)C(=O)[C@H](C2CCCC2)N(C)C(=O)C2(CCCC2)NC(=O)[C@@H]2CCCN2C(=O)[C@H](CCc2ccc(C(F)(F)F)c(Cl)c2)NC(=O)CN(C)C(=O)[C@H](Cc2ccc(C(F)(F)F)cc2)N2CC/C=C\C[C@@H](C2=O)N(C)C(=O)CN(C)C1=O [PP0463] | 540 pM | A (a compound having 10 or more and less than 20 is denoted as A) | A (a compound having 10 or more and less than 20 is denoted as A)
CC[C@H](C)[C@@H]1NC(=O)[C@H](CC(C)C)N(C)C(=O)C[C@@H](C(=O)N2CCOCC2)N(C)C(=O)[C@H](C2CCCC2)N(C)C(=O)C2(CCC2)NC(=O)[C@@H]2CC(F)(F)CN2C(=O)[C@H](CCc2cc(F)c(C(F)(F)F)c(F)c2)NC(=O)CN(C)C(=O)[C@H](Cc2ccc(C(F)(F)F)cc2)N2CCCCC[C@@H](C2=O)N(C)C(=O)CN(C)C1=O [PP0464] | 920 pM | B (a compound having 3 or more and less than 10 is denoted as B) | B (a compound having 3 or more and less than 10 is denoted as B)
CC[C@H](C)[C@@H]1NC(=O)[C@H](CC(C)C)N(C)C(=O)C[C@@H](C(=O)N(C)C)N(C)C(=O)[C@H](C2CCCC2)N(C)C(=O)C2(CCCC2)NC(=O)[C@@H]2CC(F)(F)CN2C(=O)[C@H](CCc2cc(F)c(C(F)(F)F)c(F)c2)NC(=O)CN(C)C(=O)[C@H](Cc2ccc(C(F)(F)F)cc2)N2CCCCC[C@@H](C2=O)N(C)C(=O)CN(C)C1=O [PP0465] | 510 pM | B (a compound having 3 or more and less than 10 is denoted as B) | B (a compound having 3 or more and less than 10 is denoted as B)
CC[C@H](C)[C@@H]1NC(=O)[C@H](CC(C)C)N(C)C(=O)C[C@@H](C(=O)N(C)C)N(C)C(=O)[C@H](C2CCCC2)N(C)C(=O)C2(CCC2)NC(=O)[C@@H]2CC(F)(F)CN2C(=O)[C@H](CCc2cc(F)c(C(F)(F)F)c(F)c2)NC(=O)CN(C)C(=O)[C@H](Cc2ccc(C(F)(F)F)cc2)N2CCCCC[C@@H](C2=O)N(C)C(=O)CN(C)C1=O [PP0466] | 200 pM | B (a compound having 3 or more and less than 10 is denoted as B) | B (a compound having 3 or more and less than 10 is denoted as B)
CCO[C@@H]1C[C@H]2C(=O)NC3(CCC3)C(=O)N(C)[C@@H](C3CCCC3)C(=O)N(C)[C@H](C(=O)N3CCOCC3)CC(=O)N(C)[C@@H](CC(C)C)C(=O)N[C@@H]([C@@H](C)CC)C(=O)N(C)CC(=O)N(C)[C@H]3CCCCCN(C3=O)[C@@H](Cc3ccc(C(F)(F)F)cc3)C(=O)N(C)CC(=O)N[C@@H](CCc3cc(F)c(C(F)(F)F)c(F)c3)C(=O)N2C1 [PP0467] | 590 pM | B (a compound having 3 or more and less than 10 is denoted as B) | B (a compound having 3 or more and less than 10 is denoted as B)
CCO[C@@H]1C[C@H]2C(=O)NC3(CCCC3)C(=O)N(C)[C@@H](C3CCCC3)C(=O)N(C)[C@H](C(=O)N(C)C)CC(=O)N(C)[C@@H](CC(C)C)C(=O)N[C@@H]([C@@H](C)CC)C(=O)N(C)CC(=O)N(C)[C@H]3CCCCCN(C3=O)[C@@H](Cc3ccc(C(F)(F)F)cc3)C(=O)N(C)CC(=O)N[C@@H](CCc3cc(F)c(C(F)(F)F)c(F)c3)C(=O)N2C1 [PP0468] | 800 pM | B (a compound having 3 or more and less than 10 is denoted as B) | B (a compound having 3 or more and less than 10 is denoted as B)
CC[C@H](C)[C@@H]1NC(=O)[C@H](C)N(C)C(=O)C[C@@H](C(=O)N(C)C)N(C)C(=O)[C@H](C2CCCC2)N(C)C(=O)C2(CCC2)NC(=O)[C@@H]2CCCN2C(=O)[C@H](CCc2cc(F)c(C(F)(F)F)c(F)c2)NC(=O)CN(C)C(=O)[C@H](Cc2ccc(C(F)(F)F)cc2)N2CCCCC[C@@H](C2=O)N(C)C(=O)CN(C)C1=O [PP0470] | 550 pM | B (a compound having 3 or more and less than 10 is denoted as B) | B (a compound having 3 or more and less than 10 is denoted as B)
CC[C@H](C)[C@@H]1NC(=O)[C@H](C)N(C)C(=O)C[C@@H](C(=O)N2CCOCC2)N(C)C(=O)[C@H](C2CCCC2)N(C)C(=O)C2(CCC2)NC(=O)[C@@H]2CC(F)(F)CN2C(=O)[C@H](CCc2cc(F)c(C(F)(F)F)c(F)c2)NC(=O)CN(C)C(=O)[C@H](Cc2ccc(C(F)(F)F)cc2)N2CCCCC[C@@H](C2=O)N(C)C(=O)CN(C)C1=O [PP0471] | 930 pM | B (a compound having 3 or more and less than 10 is denoted as B) | B (a compound having 3 or more and less than 10 is denoted as B)
CC[C@H](C)[C@@H]1NC(=O)[C@H](C)N(C)C(=O)C[C@@H](C(=O)N(C)C)N(C)C(=O)[C@H](C2CCCC2)N(C)C(=O)C2(CCCC2)NC(=O)[C@@H]2CC(F)(F)CN2C(=O)[C@H](CCc2cc(F)c(C(F)(F)F)c(F)c2)NC(=O)CN(C)C(=O)[C@H](Cc2ccc(C(F)(F)F)cc2)N2CCCCC[C@@H](C2=O)N(C)C(=O)CN(C)C1=O [PP0472] | 770 pM | B (a compound having 3 or more and less than 10 is denoted as B) | B (a compound having 3 or more and less than 10 is denoted as B)
CC[C@H](C)[C@@H]1NC(=O)[C@H](C)N(C)C(=O)C[C@@H](C(=O)N(C)C)N(C)C(=O)[C@H](C2CCCC2)N(C)C(=O)C2(CCC2)NC(=O)[C@@H]2CC(F)(F)CN2C(=O)[C@H](CCc2cc(F)c(C(F)(F)F)c(F)c2)NC(=O)CN(C)C(=O)[C@H](Cc2ccc(C(F)(F)F)cc2)N2CCCCC[C@@H](C2=O)N(C)C(=O)CN(C)C1=O [PP0473] | 560 pM | C (A compound having a KD ratio of 0.1 or more and less than 3 is denoted as C) | C (A compound having a KD ratio of 0.1 or more and less than 3 is denoted as C)
CCO[C@@H]1C[C@H]2C(=O)NC3(CCC3)C(=O)N(C)[C@@H](C3CCCC3)C(=O)N(C)[C@H](C(=O)N3CCOCC3)CC(=O)N(C)[C@@H](C)C(=O)N[C@@H]([C@@H](C)CC)C(=O)N(C)CC(=O)N(C)[C@H]3CCCCCN(C3=O)[C@@H](Cc3ccc(C(F)(F)F)cc3)C(=O)N(C)CC(=O)N[C@@H](CCc3cc(F)c(C(F)(F)F)c(F)c3)C(=O)N2C1 [PP0474] | 630 pM | B (a compound having 3 or more and less than 10 is denoted as B) | B (a compound having 3 or more and less than 10 is denoted as B)
CCO[C@@H]1C[C@H]2C(=O)NC3(CCCC3)C(=O)N(C)[C@@H](C3CCCC3)C(=O)N(C)[C@H](C(=O)N(C)C)CC(=O)N(C)[C@@H](C)C(=O)N[C@@H]([C@@H](C)CC)C(=O)N(C)CC(=O)N(C)[C@H]3CCCCCN(C3=O)[C@@H](Cc3ccc(C(F)(F)F)cc3)C(=O)N(C)CC(=O)N[C@@H](CCc3cc(F)c(C(F)(F)F)c(F)c3)C(=O)N2C1 [PP0475] | 460 pM | B (a compound having 3 or more and less than 10 is denoted as B) | B (a compound having 3 or more and less than 10 is denoted as B)
CCO[C@@H]1C[C@H]2C(=O)NC3(CCC3)C(=O)N(C)[C@@H](C3CCCC3)C(=O)N(C)[C@H](C(=O)N(C)C)CC(=O)N(C)[C@@H](C)C(=O)N[C@@H]([C@@H](C)CC)C(=O)N(C)CC(=O)N(C)[C@H]3CCCCCN(C3=O)[C@@H](Cc3ccc(C(F)(F)F)cc3)C(=O)N(C)CC(=O)N[C@@H](CCc3cc(F)c(C(F)(F)F)c(F)c3)C(=O)N2C1 [PP0476] | 200 pM | B (a compound having 3 or more and less than 10 is denoted as B) | B (a compound having 3 or more and less than 10 is denoted as B)
CC[C@H](C)[C@@H]1NC(=O)[C@H](CC(C)C)N(C)C(=O)C[C@@H](C(=O)N2CCOCC2)N(CC)C(=O)[C@H](C2CCCC2)N(C)C(=O)C2(CCCC2)NC(=O)[C@@H]2CCCN2C(=O)[C@H](CCc2cc(F)c(C(F)(F)F)c(F)c2)NC(=O)CN(C)C(=O)[C@H](Cc2ccc(C(F)(F)F)cc2)N2CCCCC[C@@H](C2=O)N(C)C(=O)CN(C)C1=O [PP0477] | 11000 pM | A (a compound having 10 or more and less than 20 is denoted as A) | A (a compound having 10 or more and less than 20 is denoted as A)
